According to patent US20180369244A1, “BTK Inhibitors to Treat Solid Tumors Through Modulation of the Tumor Microenvironment” (Acerta Pharma B.V., priority 2014, published 2018):

Experiments:
[1] = tested on: CD4+ T cells; assay: Th17 and Treg development from CD4+ T cells; format: cell-based
Procedure: Enriched CD4^+ T cells are plated on 24-well culture dishes that have been precoated 2 hr with 250 μL anti-TCRβ (0.5 μg/mL) plus anti-CD28 (5 μg/mL) at 37° C. in PBS. The cells are then supplemented with media containing BTK inhibitors along with the skewing cytokines as indicated in the following. The Th17 and Treg cultures are grown for 4 days before analysis. The cells are maintained for an additional 3 days with skewing cytokines (Th17; 20 ng/mL IL-6, 0.5 ng/mL TGF-β, 5 μg/mL IL-4, 5 μg/mL IFN-γ and Treg; 0.5 ng/mL TGF-β, 5 μg/mL IL-4, 5 μg/mL IFN-γ) and are supplemented with IL2 as a growth factor.

[2] = GLP safety pharmacology in rats (functional observation battery, respiratory function); format: in vivo; details: doses through 300 mg/kg
Text: Formula (II) was well tolerated in standard in vivo Good Laboratory Practices (GLP) studies of pharmacologic safety.

[3] = tested on: primary CLL cells; assay: Rituximab ADCC chromium release assay; format: cell-based, human; details: 1 μM; primary CLL samples
Procedure: Cell culture conditions were as follows. Cell lines Raji and DHL-4 were maintained in […] supplemented with fetal bovine serum, L-glutamine, 2-mercaptoethanol and penicillin-streptomycin at 37° C. in a humidified incubator. The HER18 cells were maintained in DEM supplemented with fetal bovine serum, penicillin-streptomycin and. Prior to assay, HER18 cells were harvested using trypsin-EDTA, washed with phosphate-buffered saline (PBS) containing 5% serum and viable cells were counted. For culture of primary target cells, peripheral blood from CLL patients was subject to density centrifugation to obtain peripheral blood mononuclear cells (PBMC). Cell preparations were washed and then subject to positive selection of CD5+CD19^+ CLL cells using magnetic beads (MACS, Miltenyi Biotech). Cell preparations were used fresh after selection. NK cells from CLL patients and healthy volunteers were enriched from peripheral blood collected in sodium citrate anti-coagulant tubes and then subject to density centrifugation. Removal of non NK cells was performed using negative selection by MACS separation. […]
ADCC assays were performed as follows. […] The effect of NK cell natural cytotoxicity was assessed in wells containing no rituximab. […] Supernatants were harvested and ^51Cr release was measured by liquid scintillation counting. […]

[4] = target: CYP3A4 (Homo sapiens, UniProt P08684); assay: Loss of parent drug as catalyzed by CYPs; format: in vitro ADME
Text: No unique human metabolite was identified. Preliminary evaluations of metabolism in the plasma, bile, and urine of rats, dogs, and monkeys indicated metabolic processes of oxidation, glutathione binding, and hydrolysis.

[5] = tested on: BCR activation markers CD69 and CD86; assay: In vivo potency, CD69 and CD86 expression after IgM stimulation; design: species or system mice; details: oral gavage, 3 h post-dose
Text: CD86 and CD69 are cell surface proteins that are BCR activation markers. […] BCR was stimulated with IgM and the expression of activation marker CD69 and CD86 are monitored by flow cytometry and to determine EC50 values.

[6] = target: T1, BTK (Mus musculus, UniProt P35991); assay: Molecular probe assay, BTK occupancy in MDSCs of tumor bearing PDA mice; format: in vivo; details: 15 mg/kg BID, Day 8, 4 hours post dose
T1 construct: endogenous in cells; host or cells: granulocytic and monocytic MDSCs from tumor-bearing PDA mice
Text: A molecular probe assay was used to calculate the percent irreversible occupancy of total BTK.

[7] = tested on: Raji cells; assay: Rituximab ADCC chromium release assay; format: cell-based, human; details: 1 μM
Text: Cell culture conditions were as follows. […] The HER18 cells were maintained in DEM supplemented with fetal bovine serum, penicillin-streptomycin and. Prior to assay, HER18 cells were harvested using trypsin-EDTA, washed with phosphate-buffered saline (PBS) containing 5% serum and viable cells were counted. For culture of primary target cells, peripheral blood from CLL patients was subject to density centrifugation to obtain peripheral blood mononuclear cells (PBMC). Cell preparations were washed and then subject to positive selection of CD5+CD19^+ CLL cells using magnetic beads (MACS, Miltenyi Biotech). Cell preparations were used fresh after selection. NK cells from CLL patients and healthy volunteers were enriched from peripheral blood collected in sodium citrate anti-coagulant tubes and then subject to density centrifugation. Removal of non NK cells was performed using negative selection by MACS separation. Freshly isolated NK cells were washed three times, enumerated, and then used immediately for ADCC assays.
ADCC assays were performed as follows. Briefly, target cells (Raji or primary CLL) were labeled by incubation at 37° C. with 100 μCi ^51Cr for 4 hours prior to co-culture with NK cells. Cells were washed, enumerated, and then added in triplicate to prepared 96-well plates containing treated NK cells at an effector:target (E:T) ratio of 25:1. […] The effect of NK cell natural cytotoxicity was assessed in wells containing no rituximab. Cultures were incubated at 37° C. for 4 hours, and then centrifuged. Supernatants were harvested and ^51Cr release was measured by liquid scintillation counting. All experiments were performed in triplicate.

[8] = tested on: CD8+ T cells; assay: CD8+ T cell viability; format: cell-based; details: 4 days culture
Procedure: Total T cells were plated on anti-TCR and anti-CD28 coated wells in the presence of both BTK inhibitors. Neutral culture conditions were used that will not polarize T cells to a helper lineage. The cells are grown for 4 days and are then stained with anti-CD4, anti-CD8 and LIVE/DEAD reagent to determine if the drugs have selective effects on either the CD4^+ or CD8^+ cells. Statistical significance was calculated using the Mann Whitney T-test. […]

[9] = tested on: NK cells; assay: Antibody-dependent NK cell degranulation (CD107a flow cytometry); format: cell-based, human
Text: Cell culture conditions were as follows. […] The HER18 cells were maintained in DEM supplemented with fetal bovine serum, penicillin-streptomycin and. Prior to assay, HER18 cells were harvested using trypsin-EDTA, washed with phosphate-buffered saline (PBS) containing 5% serum and viable cells were counted. […] Cell preparations were washed and then subject to positive selection of CD5+CD19^+ CLL cells using magnetic beads (MACS, Miltenyi Biotech). Cell preparations were used fresh after selection. […] Removal of non NK cells was performed using negative selection by MACS separation. Freshly isolated NK cells were washed three times, enumerated, and then used immediately for ADCC assays.
Lytic granule release was determined as follows. […] Degranulation was evaluated via by flow cytometery by externalization of CD107a, a protein normally present on the inner leaflet of lytic granules, and gating on NK cells (CD3-CD16^+ lymphocytes). The percentage of CD107a positive NK cells was quantified by comparison with a negative control (isotype control, unstained cells/FMO). Control cultures (NK cells cultured without target cells, or NK, target cell co-cultures in the absence of appropriate monoclonal antibody) were also evaluated; all experiments were performed in triplicate.

[10] = tested on: CD8+ T cells; assay: Cytotoxic T cell (CTL) assay; format: cell-based; details: 500 nM
Procedure: CD8^+ T cells have at least two primary effector functions: (1) produce large amounts of IFN-γ (which activates macrophages), and (2) cytolytic activity. […] The targets were B lymphoblasts from lipopolysaccharide (LPS) treated cultures. The assay was performed by incubating different ratios of effectors:targets for 4 hours.

T1 sequence (P35991 whole entry): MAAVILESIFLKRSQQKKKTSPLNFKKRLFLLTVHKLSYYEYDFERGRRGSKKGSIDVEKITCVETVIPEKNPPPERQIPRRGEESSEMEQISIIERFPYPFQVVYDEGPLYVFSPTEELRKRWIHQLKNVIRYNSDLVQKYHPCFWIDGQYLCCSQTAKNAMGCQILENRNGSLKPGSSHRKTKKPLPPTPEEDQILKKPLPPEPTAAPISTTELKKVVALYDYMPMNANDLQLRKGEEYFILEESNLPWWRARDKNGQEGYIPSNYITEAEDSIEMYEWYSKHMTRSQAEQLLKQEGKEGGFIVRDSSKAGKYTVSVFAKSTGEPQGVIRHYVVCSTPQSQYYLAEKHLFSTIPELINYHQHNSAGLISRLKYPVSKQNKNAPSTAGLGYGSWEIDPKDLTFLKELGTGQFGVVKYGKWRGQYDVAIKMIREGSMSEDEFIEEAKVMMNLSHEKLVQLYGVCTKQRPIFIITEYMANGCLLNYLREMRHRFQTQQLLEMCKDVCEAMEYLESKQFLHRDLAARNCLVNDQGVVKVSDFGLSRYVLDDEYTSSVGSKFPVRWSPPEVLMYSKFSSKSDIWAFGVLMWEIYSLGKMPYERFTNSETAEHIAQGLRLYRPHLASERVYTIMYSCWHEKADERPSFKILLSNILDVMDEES
Chain of CYP3A4 (P08684 whole entry): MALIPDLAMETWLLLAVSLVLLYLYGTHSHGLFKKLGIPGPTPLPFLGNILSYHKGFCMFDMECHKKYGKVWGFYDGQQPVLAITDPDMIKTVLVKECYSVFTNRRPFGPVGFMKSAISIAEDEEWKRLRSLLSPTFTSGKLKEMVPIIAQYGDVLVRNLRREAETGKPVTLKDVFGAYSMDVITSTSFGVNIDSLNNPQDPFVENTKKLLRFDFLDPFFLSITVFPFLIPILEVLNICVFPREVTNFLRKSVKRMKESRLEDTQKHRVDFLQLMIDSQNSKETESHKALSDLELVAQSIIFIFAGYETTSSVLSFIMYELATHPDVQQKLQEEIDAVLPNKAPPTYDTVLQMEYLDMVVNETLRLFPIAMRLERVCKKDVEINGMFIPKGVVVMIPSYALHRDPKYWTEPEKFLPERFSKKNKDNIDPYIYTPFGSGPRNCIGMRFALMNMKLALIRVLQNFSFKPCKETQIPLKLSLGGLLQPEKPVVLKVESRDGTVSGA

## CC#CC(=O)N1CCC[C@H]1c1nc(-c2ccc(C(=O)Nc3ccccn3)cc2)c2c(N)nccn12 [Formula (II), (S)-4-(8-amino-3-(1-(but-2-ynoyl)pyrrolidin-2-yl)imidazo[1,5-a]pyrazin-1-yl)-N-(pyridin-2-yl)benzamide]
[1]
  Th17 and Treg development: no adverse effects on Th17 and Treg development
[2]
  functional observation battery: neurobehavioral effects, body temperature: no adverse effects
  respiratory function: no treatment-related adverse effects
[3]
  ex vivo NK cell activity against autologous tumor cells: not inhibited
[4]
  CYP metabolism: metabolized by CYP3A4
[5]
  in vivo potency, inhibition of activation markers: more potent at inhibiting expression of activation makers than ibrutinib
[6]
  irreversible BTK occupancy in granulocytic and monocytic MDSC: Complete BTK occupancy
[7]; FIG. 31
  rituximab ADCC, NK cell activity: not inhibited
[7]; healthy donor NK cells
  antibody-dependent lysis of rituximab-coated Raji cells: not inhibited
[8]
  CD8+ T cell viability: not observed
[9]; 1 μM, HER18 target cells
  inhibition of trastuzumab-stimulated NK cell degranulation: no inhibitory effect
[9]; DHL-4 target cells
  reduction of rituximab-stimulated NK cell degranulation: < 2%
[10]
  CD8+ T cell function as % cytotoxicity: no effect on CD8^+ T cell function
